From EP4741379A1, “CLASS OF PROGRAMMED CELL DEATH INHIBITORS, PREPARATION METHOD THEREFOR AND USE THEREOF” (SHANGHAI INSTITUTE OF ORGANIC CHEMISTRY, CHINESE ACADEMY OF …, priority 2023, dated 2025)
Where two headings read alike, the source gives them in different places.

Legend:
[1] = tested on: L929 cells; assay: TNF-induced programmed necrosis of L929 cells (Cell Titer-Glo viability); format: cell-based, mouse; details: for EC50: Mus musculus
Method: (§1) The biological test protocol is adopted to test effects of the compound on TNF-induced programmed necrosis of FADD (Fas-associated death domain)-deficient Jurkat cells and L929 cells.
(§2) Two different stimulation methods were used: treating with tumor necrosis factor (TNFα) alone, or treating with TNFα in combination of mitochondrial-derived cysteine-aspartate activator (SMAC) SM164. Cell viability was determined by measuring chemiluminescence values, thereby assessing the bioactivity of the compounds in inhibiting programmed cell necrosis.
(§3) Method: FADD-deficient Jurkat cells: FADD-deficient Jurkat cells (human peripheral blood leukemia T cell line) were cultured in vitro. After reaching logarithmic growth phase, cells were collected and centrifuged at 1000 rpm for 5 minutes. A supernatant was discarded. A cell concentration was adjusted to 2.5×10^5/mL, and cells were seeded into a 384-well plate at 40 µL per well. In the corresponding wells, 5 µL of SM164 (50 nM) and compounds diluted with cell culture medium were added. After pre-treatment at 37°C for 1 hour, 5 µL of TNFα (50 ng/mL) diluted with cell culture medium was added to each well as a stimulation group, while 5 µL of culture medium was added as a control group. After the plate was incubated in a cell culture incubator (37°C, 5% CO2) for 14 hours, 15 µL of Cell Titer-Glo solution was added to each well. Then, the plate was incubated at room temperature for 30 minutes. Luminescence was measured to assess intracellular ATP levels. Cell viability was set at 100% for unstimulated DMSO control wells. […] The plate was placed in a cell culture incubator (37°C, 5% CO2) and cultured for 12 hours. In the corresponding wells, 5 µL of SM164 (500 nM) and compounds diluted with cell culture medium were added. After pre-treatment at 37°C for 1 hour, 5 µL of TNFα (500 ng/mL) diluted with cell culture medium was added to the wells as a stimulation group, while 5 µL of culture medium was added as a control group. After the plate was incubated in the cell incubator (37°C, 5% CO2) for 14 hours, 15 µL of Cell Titer-Glo solution was added to each well. Then, the plate was incubated at room temperature for 30 minutes, and luminescence was measured to assess intracellular ATP levels. Cell viability was set at 100% for unstimulated DMSO control wells. EC50 values of the compounds were calculated using Prism GraphPad statistical software.

[2] = tested on: FADD-deficient Jurkat cells; assay: TNF-induced programmed necrosis of FADD-deficient Jurkat cells (Cell Titer-Glo viability); format: cell-based, human; details: for EC50: Homo sapiens, Jurkat
Method: as §1, §2, §3

[3] = biological target: T1, mouse derived RIPK1 (Mus musculus, UniProt Q60855); assay: Inhibitory activity against mouse derived RIPK1 (statement only); details: in words
T1 sequence (Q60855 1-656): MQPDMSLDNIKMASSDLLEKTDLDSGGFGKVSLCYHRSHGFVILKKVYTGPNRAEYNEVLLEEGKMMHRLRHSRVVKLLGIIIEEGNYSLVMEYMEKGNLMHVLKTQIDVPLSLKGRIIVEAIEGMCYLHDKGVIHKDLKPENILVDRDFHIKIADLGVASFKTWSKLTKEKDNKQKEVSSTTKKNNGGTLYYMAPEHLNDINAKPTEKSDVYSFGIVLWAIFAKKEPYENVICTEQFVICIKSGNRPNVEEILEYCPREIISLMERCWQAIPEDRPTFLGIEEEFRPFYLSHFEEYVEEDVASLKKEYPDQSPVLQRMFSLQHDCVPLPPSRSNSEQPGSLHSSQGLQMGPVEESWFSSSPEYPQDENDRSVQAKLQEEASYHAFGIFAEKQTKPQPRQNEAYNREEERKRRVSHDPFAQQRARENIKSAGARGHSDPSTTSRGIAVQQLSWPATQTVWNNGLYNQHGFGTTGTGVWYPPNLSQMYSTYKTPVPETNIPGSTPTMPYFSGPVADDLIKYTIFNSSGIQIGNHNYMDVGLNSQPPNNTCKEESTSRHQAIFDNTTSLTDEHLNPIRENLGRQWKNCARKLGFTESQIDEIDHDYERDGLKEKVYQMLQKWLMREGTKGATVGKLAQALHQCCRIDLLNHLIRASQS

[4] = L929, read-out: EC50 (nM) L929 cells (mouse-derived) TNFα
[5] = read-out: EC50 (nM) FADD^-/- Jurkat cells (human-derived) TNFα
[6] = L929, stimulation with TNFα + SM164, read-out: EC50 (nM) L929 cells (mouse-derived) TNFα+ SM164
[7] = L929, stimulation with TNFα alone, read-out: EC50 (nM) L929 cells (mouse-derived) TNFα
[8] = stimulation with TNFα + SM164, read-out: EC50 (nM) FADD^-/- Jurkat cells (human-derived) TNFα+ SM164
[9] = stimulation with TNFα alone, read-out: EC50 (nM) FADD^-/- Jurkat cells (human-derived) TNFα

Structure (SMILES)	EC50 [1, 4] [nM]	programmed necroptosis inhibitory activity on mouse derived L929 cells ([1]; in words)	EC50 [2, 5] [nM]	inhibitory activity against mouse derived RIPK1 [3]	EC50 [1, 6] [nM]	EC50 [1, 7] [nM]	EC50 [2, 8] [nM]	EC50 [2, 9] [nM]	programmed necroptosis inhibitory activity compared to SAR443122 ([2]; TNFα alone or TNFα + SM164, human derived FADD-deficient Jurkat cells)
CN1C(=O)[C@@H](NC(=O)c2nnc(Cc3ccccc3)[nH]2)COc2cccnc21 [SAR443122, reference compound]	> 1000	nearly inactive	0.9	very poor inhibitory activity					
C[C@H](NC(=O)c1nnn(C)c1Cc1ccccc1)c1ccc(C#Cc2ncccn2)cc1 [IRCBC-046]					0.43	0.203	0.087	0.001	
Cn1nnc(C(=O)NCc2ccc(C#Cc3ccccn3)c(F)c2)c1Cc1ccccc1 [IRCBC-058]					35.2	1.5	1.25	0.018	
C[C@H](NC(=O)c1nnn(C)c1Cc1ccccc1)c1ccc(C#Cc2cnc[nH]2)cc1 [IRCBC-005]					3.42	2.09	1.12	0.019	
C[C@H](NC(=O)c1nnn(C)c1Cc1ccccc1)c1ccc(C#Cc2ccc(F)cn2)cc1 [IRCBC-049]	0.118		0.002						
C[C@H](NC(=O)c1nnn(C)c1Cc1ccccc1)c1ccc(C#Cc2ccc(Cl)cn2)cc1 [IRCBC-050]	0.105		0.001						
C[C@H](NC(=O)c1nnn(C)c1Cc1ccccc1)c1ccc(C#Cc2ccncc2Cl)cc1 [IRCBC-093]	0.374		0.001						
C[C@H](NC(=O)c1nnn(C)c1Cc1ccccc1)c1ccc(C#Cc2nccs2)cc1 [IRCBC-007]	0.631		0.072						
C[C@H](NC(=O)c1nnn(C)c1Cc1ccc(C#N)cc1)c1ccc(C#Cc2ccccn2)cc1 [IRCBC-071]					2.99	0.914	0.641	0.006	
C[C@H](NC(=O)c1nnn(C)c1Cc1ccccc1)c1ccc(C#Cc2ccc(N(C)C)cn2)cc1 [IRCBC-053]					0.011	0.004	0.001		
CC(=O)Nc1ccc(C#Cc2ccc([C@H](C)NC(=O)c3nnn(C)c3Cc3ccccc3)cc2)nc1 [IRCBC-149]					0.066	0.045	0.003		
COc1ccc(C#Cc2ccc([C@H](C)NC(=O)c3nnn(C)c3Cc3ccccc3)cc2)nc1 [IRCBC-052]	0.068		0.001						
C[C@H](NC(=O)c1nnn(C)c1Cc1ccccc1)c1ccc(C#Cc2cc(N(C)C)ccn2)cc1 [IRCBC-125]					1.68	0.445	0.145	0.01	
C[C@H](NC(=O)c1nnn(C)c1Cc1ccccc1)c1ccc(C#Cc2ccc(N3CCC3)cn2)cc1 [IRCBC-103]					0.104	0.044	0.001		
C[C@H](NC(=O)c1nnn(C)c1Cc1ccccc1)c1ccc(C#Cc2ncc(NC3CC3)cn2)cc1 [IRCBC-271]					0.00618		0.0111		
C[C@H](NC(=O)c1cnn(C)c1Cc1cc(F)cc(F)c1)c1ccc(C#Cc2ccccn2)cc1 [IRCBC-033]					4.11	0.771	1.57	0.066	
C[C@H](NC(=O)c1nnn(C)c1Cc1ccccc1)c1ccc(C#CC2CCOCC2)cc1 [QY-18-44]					0.3	0.2	0.3	0.04	

Structure (SMILES)	EC50 [1, 4] [nM]	programmed necroptosis inhibitory activity on mouse derived L929 cells ([1]; in words)	EC50 [2, 5] [nM]	inhibitory activity against mouse derived RIPK1 [3]	EC50 [1, 6] [nM]	EC50 [1, 7] [nM]	EC50 [2, 8] [nM]	EC50 [2, 9] [nM]	programmed necroptosis inhibitory activity compared to SAR443122 ([2]; TNFα alone or TNFα + SM164, human derived FADD-deficient Jurkat cells)
C[C@H](NC(=O)c1nnn(C)c1Cc1ccccc1)c1ccc(C#Cc2ccncc2F)cc1 [IRCBC-054]	0.103		0.001						
C[C@H](NC(=O)c1nnn(C)c1Cc1ccccc1)c1ccc(C#Cc2cnc3cccnn23)cc1 [IRCBC-131]					8.75	2.05	0.16	0.003	
C[C@H](NC(=O)c1nnn(C)c1Cc1ccccc1)c1ccc(C#Cc2cncn2C)cc1 [QY-20-55]					23	2.2	1.4	0.1	
C[C@H](NC(=O)c1nnn(C)c1Cc1cccc(C#N)c1)c1ccc(C#Cc2ccccn2)cc1 [IRCBC-072]					17.3	1.79	2.73	0.049	
C[C@H](NC(=O)c1nnn(C)c1Cc1ccccc1)c1ccc(C#Cc2cccnc2)cc1 [QY-18-25]					1.2	0.3	0.02	< 0.01	
C[C@H](NC(=O)c1nnn(C)c1Cc1ccccc1)c1ccc(C#Cc2ncccc2C#N)cc1 [IRCBC-121]					0.069	0.012	0.01		
CC(C)N1CCN(c2ccc(C#Cc3ccc([C@H](C)NC(=O)c4nnn(C)c4Cc4ccccc4)cc3)nc2)CC1 [IRCBC-159]					0.006	0.003	0.002		
CN1C(=O)[C@@H](NC(=O)c2n[nH]c(Cc3ccccc3)n2)COc2ccccc21 [GSK2982772, reference compound]					> 1000	> 1000	4	0.7	
C[C@H](NC(=O)c1nnn(C)c1Cc1ccccc1)c1ccc(C#Cc2ncco2)cc1 [IRCBC-008]	1.86		0.055						
COc1cccnc1C#Cc1ccc([C@H](C)NC(=O)c2nnn(C)c2Cc2ccccc2)cc1 [IRCBC-123]					1.05	0.246	0.004		
C[C@H](NC(=O)c1nnn(C)c1Cc1ccccc1)c1ccc(C#Cc2cnoc2)cc1 [QY-18-77]						733	32	0.3	
Cn1nnc(C(=O)NCc2ccc(C#Cc3ccccn3)nc2)c1Cc1ccccc1 [IRCBC-057]					35.5	12.6	3.9	0.537	
C[C@H](NC(=O)c1nnn(C)c1Cc1ccccc1)c1ccc(C#Cc2ccc(C#N)cn2)cc1 [IRCBC-051]					4.53	1.62	0.845	0.006	
C[C@H](NC(=O)c1nnn(C)c1Cc1ccccc1)c1ccc(C#Cc2ccn(C)n2)cc1 [IRCBC-004]	0.558		0.019						
CN1C(=O)N[C@H](Cc2c[nH]c3c(Cl)cccc23)C1=O [Nec-1s, reference compound]	443		228						
C[C@H](NC(=O)c1nnn(C)c1Cc1ccccc1)c1ccc(C#Cc2cnc(N(C)C)nc2)cc1 [IRCBC-119]					70.9	20.9	5.79	0.164	
C[C@H](NC(=O)c1nnn(C)c1Cc1cccc(F)c1)c1ccc(C#Cc2ccccn2)cc1 [QY-20-54]					0.3	0.05	< 0.01	< 0.01	stronger
